The values below come from patent US11730769B2, “Compositions and methods for Williams Syndrome (WS) therapy” (MASSACHUSETTS INSTITUTE OF TECHNOLOGY, priority 2017, dated 2023).

Usually Cmax stands for the highest concentration seen after dosing.

Series [1] has as its system rats. The settings on record: cited from earlier work.
The test system of series [2] is L-type calcium channels. The settings on record: read-out: EC50 for activation of L-type calcium channels; cited from earlier work.
Series [3] deals with P/Q-type calcium channels (Homo sapiens, UniProt O00555). As to conditions: read-out: EC50 for activation of P/Q-type calcium channels; cited from earlier work.
Series [4] deals with N-type calcium channels (Homo sapiens, UniProt Q00975). The settings on record: read-out: EC50 for activation of N-type calcium channels; cited from earlier work.
The conditions of series [5]: in vivo; cited from earlier work.
The conditions of series [6]: cited from earlier work.
For series [7] the following is noted: phosphate salt; does not require refrigeration; cited from earlier work.
The test system of series [8] is socially isolated mice. As to conditions: cited from earlier work.
Series [9] concerns Gtf2i cKO mice. In words: Number of myelinating oligodendrocytes (immunofluorescence). The class given is in vivo. The settings on record: clemastine 10 mg/kg daily by gastric gavage for 14 days.
Procedure: Basic immunofluorescence procedure was used as previously described (68). Mice were deeply anesthetized with isoflurane and transcardially perfused with 15 ml ice-cold PBS solution followed by 15 ml fresh ice-cold 4% paraformaldehyde (PFA) in PBS. Brains were dissected and kept in 4% PFA overnight at 4° C. and then sectioned at 100 μm thickness by vibratome (Leica). Floating brain slices were washed 3 times, 5 min each, with PBS and permeabilized with 1.2% Triton X-100 in PBS for 15 min at room temperature. Slices were then washed 3 times, 5 min each, followed by blocking with 5% normal goat serum, 2% BSA, 0.2% Triton X-100 in PBS for 1 h at room temperature. Primary antibodies diluted in blocking buffer were applied to sections overnight at 4° C. […]
To quantify cellular properties in the cortex, images were taken by an experimenter blinded to genotypes with a 10× magnification at the motor cortex area at bregma 0.5 mm. […] The midline of the CC was imaged at the same bregma, using a 40× magnification, and the whole depth of the CC was imaged by taking 10 images as part of a Z-stack serial imaging, and then all images were stacked together to a single image which was then analyzed for quantification. Cell numbers were quantified blindly with automation using ImageJ. […] The pixel intensity of H3ac and H3K9me3 was quantified using ImageJ, as was previously described (37). […]
Series [10] has as its system Gtf2i cKO mice. In words: Intra-cortical microstimulation (ICMS) and EMG recording (corticospinal output). The class given is in vivo. As to conditions: acute 4-AP 2 mg/kg i.p., test 30 to 60 minutes after injection; cKO and control mice. The procedure:
ICMS and EMG recording protocol was adopted from previous studies (71, 72). Each animal was anesthetized with ketamine-xylazine (100 mg/kg ketamine, 10 mg/kg xylazine, i.p.). Anesthesia level was maintained at a steady level to that animal was unresponsive to toe pinch while muscle tone was present.
A digital stereotaxic frame was used to mount the animal's head and guide stimulation electrode (stainless steel, 0.5 MOhm; World Precision Instruments) over an array of motor cortical sites (0.9 mm caudal and 0.6 mm rostral to Bregma, 0.9 mm to 1.8 mm lateral to midline, with 300 μm spacing between sites). Stimulation electrode was inserted into the cortex at 500 μm depth, targeting layer V motor neurons. The exposed brain area was immersed with silicon oil to avoid dehydration. Electrical stimulation (biphasic, 0.2 ms pulse width, 333 Hz, 45 ms) was adjusted between 100 to 300 μA and located at the position that has the lowest threshold to trigger EMG signal. Stimulation intensity of two folds of threshold was then used for EMG recording and analysis. To perform EMG recording, an incision was made on hindlimb to expose the muscles while fascia remained intact. […] EMG signals were acquired using differential AC amplifier (1700, A-M Systems, WA) with 10-1000 Hz bandpass filter, sampled at 5 kHz using a digitizer (Digidata 1440A, Axon Instruments), and analyzed by pClamp Software. […]

For series [11], the system named is normal adult myelinated axons. As to conditions: cited from earlier work.
For series [12] the following is noted: oral, non-sustained release, animals; cited from earlier work.
Series [13] deals with chronically injured spinal cord of guinea pigs. As to conditions: cited from earlier work.
The subject of series [14] is Shaker channels. The settings on record: at concentration of 1 mM; cited from earlier work.
Series [15] concerns Gtf2i cKO mice. In words: Horizontal ladder walking test. The format is in vivo. As to conditions: acute 4-AP 1 mg/kg i.p., three hours post administration. The method, then:
Mice were tested for their ability to walk on a horizontal ladder with irregularly spaced rungs, following the procedure described previously (44). Animals were trained to cross the ladder until their performance achieved the plateau (with a forelimb error of 20% or less). The irregular pattern was changed from trial to trial during training. All trials were video recorded with Hotshot e64 and paw placement was analyzed. The paw placement on rungs were categorized as Hit (platar contact and digits closure), Miss (paw falls between rungs) and Slip (imprecise contact with one or few digits). Experimenter was blinded to genotypes.
Mice were habituated to needle injections (i.p.) for three days before behavioral tests, by two i.p. injections of 200 μL of saline administered per day. […] All behavioral tests were therefore accomplished three hours post systemic administration. Saline-injected mice in each genotype (Control or cKO mice) were referred as the baseline group for the treatment group, which was injected with 4-AP. Experimenter was blinded to genotypes.

The subject of series [16] is Gtf2i cKO mice. In words: Three-chamber social preference test. The format is in vivo. As to conditions: acute 4-AP 1 mg/kg i.p., three hours post administration. The procedure: Stranger mice were wildtype S129 Sv males (Jackson Laboratory) with matched age and body weight to test mice. Stranger mice were habituated by placing them inside an inverted wire cup for 30 min, two sessions per day for three consecutive days before tests. Each stranger mouse was used a maximum of two times per day. The social test apparatus was made of a clear Plexiglas box (65 cm (L)×44 cm (W)×30 cm (H)) with a removable floor and partitions dividing the box into left, center, and right chambers. The center chamber (21 cm×22 cm) was half the width of the left and right chambers (each is 21 cm×44 cm). These three chambers were interconnected with 5 cm openings between each chamber that could be closed or opened manually with a lever-operated door. The inverted wire cups containing the stranger mice were cylindrical, 10 cm in height, with a bottom diameter of 10 cm and with metal bars spaced 0.8 cm apart. A weighted cup was placed on top of the inverted wire cups to prevent the test mice from climbing onto the wire cup. […] Then, experimenter blinded to genotypes analyzed for timespent in close proximity to the stranger mouse or object was analyzed using the Noldus Ethovison XT software. Social preference index was calculated as follows: (time in close interaction with stranger)/(time in close interaction with object). […]

The conditions of series [17]: cited from earlier work. The source holds these as a separate data set.
The conditions of series [18]: patients with MS, all studies; cited from earlier work.
Series [19] relates to Gtf2i cKO mice. In words: Evoked field potential recordings in corpus callosum. The format is in vivo. The settings on record: acute 4-AP administration. The method, then:
In vivo evoked field potential recording in corpus callosum was referenced to that from in vitro studies (69, 70). Animals were anesthetized with urethane (1,000 mg/kg) and placed on a stereotaxic instrument. Body temperature was maintained by thermostat at 37.5-38° C. Craniotomy was performed and dura was kept intact. Stainless steel stimulation electrode (300˜500 kOhm, WPI) was positioned in corpus callosum in left hemisphere (1.5 mm posterior to Bregma, 1 mm lateral from midline, 1,000˜1,300 μm beneath cortical surface), and tungsten recording electrode (2˜3 MOhm, FHC) was positioned in corpus callosum at same coronal plane in right hemisphere (1.5 mm posterior to Bregma, 1 mm from midline, 1,000˜1,300 μm beneath cortical surface). Electrical stimulation (0˜200 uA, 0.2 ms pulse width, 0.2 Hz) was delivered while both positions of stimulation and recording electrodes were slightly adjusted to optimize signal. Signals were filtered at 0.1-3,000 Hz and gained at 1,000 times (Model 1700, A-M Systems), digitized and sampled at 10,000 Hz (Digidata 1440A, Molecular Devices), and analyzed offline (Clampfit). […] Response amplitude was determined by measuring the vertical distance from negative peak to the tangent joining preceding and following positivities. […]

The conditions of series [20]: cited from earlier work. This is another data set of the same source.

“Also recorded” adds a separate entry of the source. Like-named read-outs stand apart in the source and are kept apart here. Some results are limits rather than exact numbers.

Sequence of P/Q-type calcium channels (O00555 whole entry): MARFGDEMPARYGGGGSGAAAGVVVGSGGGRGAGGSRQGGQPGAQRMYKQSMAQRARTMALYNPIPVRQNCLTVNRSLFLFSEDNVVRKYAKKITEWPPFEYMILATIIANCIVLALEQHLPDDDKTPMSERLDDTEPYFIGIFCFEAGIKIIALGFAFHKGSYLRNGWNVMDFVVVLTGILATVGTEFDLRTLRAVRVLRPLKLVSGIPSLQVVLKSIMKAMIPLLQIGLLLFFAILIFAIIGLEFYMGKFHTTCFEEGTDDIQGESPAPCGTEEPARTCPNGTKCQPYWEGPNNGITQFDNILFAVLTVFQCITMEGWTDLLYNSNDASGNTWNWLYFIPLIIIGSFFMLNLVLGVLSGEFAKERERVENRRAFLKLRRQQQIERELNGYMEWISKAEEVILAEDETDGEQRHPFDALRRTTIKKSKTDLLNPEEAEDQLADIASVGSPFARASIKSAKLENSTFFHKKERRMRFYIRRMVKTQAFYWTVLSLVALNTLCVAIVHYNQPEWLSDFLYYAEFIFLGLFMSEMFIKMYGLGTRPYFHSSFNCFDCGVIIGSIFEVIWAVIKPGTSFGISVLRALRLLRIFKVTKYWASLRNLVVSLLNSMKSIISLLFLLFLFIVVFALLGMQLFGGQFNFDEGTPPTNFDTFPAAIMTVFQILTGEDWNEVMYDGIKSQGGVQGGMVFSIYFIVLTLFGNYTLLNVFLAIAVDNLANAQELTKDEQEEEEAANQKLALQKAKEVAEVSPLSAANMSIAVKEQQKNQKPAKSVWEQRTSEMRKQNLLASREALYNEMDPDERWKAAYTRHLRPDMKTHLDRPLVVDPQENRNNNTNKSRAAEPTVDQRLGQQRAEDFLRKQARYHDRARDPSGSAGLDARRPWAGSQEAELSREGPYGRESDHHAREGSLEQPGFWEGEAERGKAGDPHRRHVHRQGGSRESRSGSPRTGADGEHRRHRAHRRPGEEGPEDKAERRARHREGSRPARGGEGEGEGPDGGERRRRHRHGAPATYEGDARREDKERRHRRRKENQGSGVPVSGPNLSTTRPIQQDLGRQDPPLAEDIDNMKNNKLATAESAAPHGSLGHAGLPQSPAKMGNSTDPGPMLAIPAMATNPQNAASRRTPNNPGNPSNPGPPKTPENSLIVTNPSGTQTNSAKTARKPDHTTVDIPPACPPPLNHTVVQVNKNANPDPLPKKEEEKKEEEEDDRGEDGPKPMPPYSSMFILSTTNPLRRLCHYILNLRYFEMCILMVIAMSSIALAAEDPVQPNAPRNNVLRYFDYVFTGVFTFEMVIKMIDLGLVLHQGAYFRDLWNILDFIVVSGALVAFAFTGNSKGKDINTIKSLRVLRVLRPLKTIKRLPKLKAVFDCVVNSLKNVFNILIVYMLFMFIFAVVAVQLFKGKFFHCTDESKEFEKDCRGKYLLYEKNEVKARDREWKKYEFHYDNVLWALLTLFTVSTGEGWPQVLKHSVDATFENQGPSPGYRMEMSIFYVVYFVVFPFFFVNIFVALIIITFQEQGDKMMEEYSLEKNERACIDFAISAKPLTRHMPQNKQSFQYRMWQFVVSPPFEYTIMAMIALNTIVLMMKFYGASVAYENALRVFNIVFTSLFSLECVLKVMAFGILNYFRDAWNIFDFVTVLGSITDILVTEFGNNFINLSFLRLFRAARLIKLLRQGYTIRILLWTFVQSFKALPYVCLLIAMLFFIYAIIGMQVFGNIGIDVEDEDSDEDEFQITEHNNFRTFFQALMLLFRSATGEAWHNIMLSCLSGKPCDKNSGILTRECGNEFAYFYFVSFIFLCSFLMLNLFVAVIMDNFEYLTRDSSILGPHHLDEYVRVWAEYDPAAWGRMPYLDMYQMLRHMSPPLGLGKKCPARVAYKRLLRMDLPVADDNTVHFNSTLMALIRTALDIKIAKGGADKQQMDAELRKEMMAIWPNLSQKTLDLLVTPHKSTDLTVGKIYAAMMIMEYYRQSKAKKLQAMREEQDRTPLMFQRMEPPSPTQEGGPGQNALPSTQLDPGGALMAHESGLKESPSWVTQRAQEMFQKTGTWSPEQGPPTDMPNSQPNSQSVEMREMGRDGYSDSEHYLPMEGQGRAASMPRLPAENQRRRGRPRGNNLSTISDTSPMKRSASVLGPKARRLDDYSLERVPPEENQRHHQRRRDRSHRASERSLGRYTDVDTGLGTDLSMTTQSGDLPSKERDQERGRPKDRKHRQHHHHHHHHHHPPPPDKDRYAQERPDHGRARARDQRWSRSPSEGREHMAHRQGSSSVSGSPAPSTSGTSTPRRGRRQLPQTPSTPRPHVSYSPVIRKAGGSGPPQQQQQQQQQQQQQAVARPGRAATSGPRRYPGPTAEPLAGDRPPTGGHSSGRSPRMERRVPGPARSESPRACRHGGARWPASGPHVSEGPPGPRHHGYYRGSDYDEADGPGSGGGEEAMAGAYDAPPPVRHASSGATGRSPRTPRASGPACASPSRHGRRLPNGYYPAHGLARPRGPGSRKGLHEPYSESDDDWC
Sequence of P/Q-type calcium channels (P54284 whole entry partner): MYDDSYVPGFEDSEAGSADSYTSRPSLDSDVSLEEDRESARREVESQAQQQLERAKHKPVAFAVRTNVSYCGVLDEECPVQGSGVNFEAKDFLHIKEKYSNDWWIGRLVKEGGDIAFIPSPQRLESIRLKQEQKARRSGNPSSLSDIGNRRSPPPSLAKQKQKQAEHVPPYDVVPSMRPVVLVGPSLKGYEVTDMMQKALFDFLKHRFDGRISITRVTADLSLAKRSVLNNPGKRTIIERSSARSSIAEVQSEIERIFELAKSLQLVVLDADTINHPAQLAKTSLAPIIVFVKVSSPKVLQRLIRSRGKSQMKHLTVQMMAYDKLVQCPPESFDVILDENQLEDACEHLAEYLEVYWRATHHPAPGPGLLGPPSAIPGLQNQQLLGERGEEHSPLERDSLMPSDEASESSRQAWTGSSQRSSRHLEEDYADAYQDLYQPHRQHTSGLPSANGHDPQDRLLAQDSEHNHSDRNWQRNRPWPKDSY
Sequence of P/Q-type calcium channels (P54289 25-946 partner limits assumed): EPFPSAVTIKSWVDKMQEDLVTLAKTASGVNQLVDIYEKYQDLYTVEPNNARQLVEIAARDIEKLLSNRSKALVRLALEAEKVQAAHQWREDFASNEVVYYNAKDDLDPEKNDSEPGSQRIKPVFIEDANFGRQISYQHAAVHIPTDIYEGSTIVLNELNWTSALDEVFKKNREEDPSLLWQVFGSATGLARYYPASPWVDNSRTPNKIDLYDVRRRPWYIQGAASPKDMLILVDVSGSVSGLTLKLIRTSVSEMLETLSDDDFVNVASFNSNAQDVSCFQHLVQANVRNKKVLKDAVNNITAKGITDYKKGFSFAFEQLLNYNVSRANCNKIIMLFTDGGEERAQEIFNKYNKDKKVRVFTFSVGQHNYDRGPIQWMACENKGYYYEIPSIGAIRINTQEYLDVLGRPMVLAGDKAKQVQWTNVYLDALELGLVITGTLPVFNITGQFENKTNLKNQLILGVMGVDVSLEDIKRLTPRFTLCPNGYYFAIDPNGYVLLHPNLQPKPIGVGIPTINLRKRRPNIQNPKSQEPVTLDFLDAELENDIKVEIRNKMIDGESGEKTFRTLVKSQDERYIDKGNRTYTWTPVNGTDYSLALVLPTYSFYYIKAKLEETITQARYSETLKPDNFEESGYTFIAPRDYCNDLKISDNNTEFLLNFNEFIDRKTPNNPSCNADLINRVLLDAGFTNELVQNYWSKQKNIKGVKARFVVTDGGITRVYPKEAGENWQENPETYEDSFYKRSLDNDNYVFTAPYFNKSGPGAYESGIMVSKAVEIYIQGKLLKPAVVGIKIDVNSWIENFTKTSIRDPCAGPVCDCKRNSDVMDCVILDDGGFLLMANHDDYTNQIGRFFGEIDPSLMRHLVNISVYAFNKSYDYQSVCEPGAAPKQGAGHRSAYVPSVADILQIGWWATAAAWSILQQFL
Sequence of P/Q-type calcium channels (P54289 947-1103 partner limits assumed): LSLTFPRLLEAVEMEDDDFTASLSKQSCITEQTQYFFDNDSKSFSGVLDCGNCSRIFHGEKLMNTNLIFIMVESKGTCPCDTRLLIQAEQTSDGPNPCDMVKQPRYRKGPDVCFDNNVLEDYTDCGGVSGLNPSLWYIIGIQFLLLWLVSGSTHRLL

Consider “Opicinumab: fully human monoclonal antibody, LINGO-1 protein antagonist (Anti-Lingo-1)”, for which the Remyelination in series [1] was 90%.

`CCCn1cnc2c(NCc3ccc(C)s3)nc(N[C@H](CC)CO)nc21` [GV-58]: the figures for the EC50 in [2], in series [3] and in [4] were greater than 100 µM, 9.9 µM and 6.8 µM, respectively.

Regarding `CC[N+](CC)(CC)CC.[Br-]` [TEA, Tetraethylammonium], the Oral activity result in series [5] is reported as “not orally active”.

As to `Nc1ccncc1N.O=P(O)(O)O` [amifampridine phosphate, 4-aminopyridine-3-ylammonium dihydrogen phosphate], in series [6] (phosphate salt), the Solubility in water result is “readily soluble in water”. For the same compound, the Stability entry in series [7] was “stable”.

On to `CN1CCCC1CCOC(C)(c1ccccc1)c1ccc(Cl)cc1` (stereo not shown) [Clemastine], for which, in [8] (oral clemastine, prolonged social isolation), the Impaired myelination result is listed as “rescued”. For the same compound, the Social avoidance behavior result in series [8] (oral, 2 weeks, adult mice following prolonged social isolation) was “successfully reverse social avoidance behavior”. The “Number of myelinating oligodendrocytes (mOLs) in cortex and CC midline” value is “normalized” in series [9]; “significantly increased and normalized to control levels” in series [9] (listed as clemastine).

As to `Nc1ccncc1` [4-AP, 4-aminopyridine], in series [10], the “EMG peak amplitude (cortico-spinal tract)” value is on record as “increased significantly; also recorded: increased following 4-AP acute administration”; the “EMG response latency (cortico-spinal tract)” value was “significantly shortened; also recorded: significantly decreased and normalized to control levels”. Moreover, the “Concentrations causing gradual depolarization of the axon resting potential” value in series [11] is listed as “above 1 mM”. In series [11] (normal adult myelinated axons), the “Concentrations at which the action potential shows little or no sensitivity” value was “below 100 μM”. For the same compound, the “Time of peak plasma concentrations” value in series [12] was “within one hour”. For the same compound, the Most effective concentration result in series [13] was “about 10 μM”. The “Inhibition of Shaker channels” value in series [14] was “selectively and reversibly inhibits”. Besides, the “Fine motor skills, horizontal irregular ladder walking, forelimb and hindlimb” value in [15] is “normalized fine motor skills; also recorded: rescued”. In addition, the “Social preference (index), three-chamber test” value in [16] is “normalized social preference; also recorded: decreased and normalized to control levels”. The Cmax in series [17] (10 mg oral solution) was 42.7 ng/mL. The “Absorption from the gastrointestinal tract” value in series [17] (oral) is given as “completely absorbed”. For the same compound, the Absolute bioavailability in series [17] (two formulations of IR tablets) is 95%. In addition, the “Incidence of adverse effects” value in [18] was “less than 5%”. In [19], the “Peak amplitude of evoked potential in corpus callosum” value is “increased following 4-AP acute administration and normalized to control levels”; the “Peak latency of evoked potential in corpus callosum” value is “significantly decreased and normalized to control levels”.

Regarding `Nc1ccncc1N.O=P(O)(O)O` [Amifampridine, pyridine-3,4-diamine], the “Time to maximum concentrations in blood plasma” value in [20] (91 healthy subjects, after a fatty meal) is 1.3 (±0.9) hours. The “Time to maximum concentrations in blood plasma” value in series [20] (91 healthy subjects, without food) is 0.6 (±0.25) hours. Besides, in series [20] (91 healthy subjects), the “Area under the curve (AUC)” value is 117 ± 77 ng·h/mL and the Biological half-life is given as 2.5±0.7 hrs. For the same compound, the “AUC increase in slow metabolizers as compared to fast metabolizers” value in [20] (N-acetyltransferase activity) is “up to 9 fold”. Moreover, in series [20] (human, in vivo), the “Eliminated via kidneys and urine as N-acetylamifampridine” value is listed as 74-81%; the “Eliminated via kidneys and urine in unchanged form” value is on record as 19%. In [20] (oral), the “Absorbed from the gut” value is given as 93-100%. Also, the Solubility in water in series [6] (20° C.) is 25 mg/mL. In addition, in series [6], the “Solubility in diethyl ether” value is “only slightly”; the “Solubility in methanol, ethanol and hot water” value is given as “readily soluble”.
